Measurements: patent publication US10206907B2, “Compounds useful for the treatment of degenerative and inflammatory diseases” (GALAPAGOS NV, priority 2008, dated 2019)
Where two headings read alike, the source gives them in different places.

Legend:
[1] = system: Collagen Induced Arthritis (CIA); assay: Rat CIA model; type: in vivo; settings: therapeutic dosing day 16 to day 30, p.o., statistical significance in several of the readouts
Method: Completed Freund's adjuvant (CFA) and incomplete Freund's adjuvant (IFA) were purchased from Difco. Bovine collagen type II (CII), lipopolysaccharide (LPS), and Enbrel were obtained from Chondrex (Isle d'Abeau, France); Sigma (P4252, L'Isle d'Abeau, France), Whyett (25 mg injectable syringe, France) Acros Organics (Palo Alto, Calif.), respectively. All other reagents used were of reagent grade and all solvents were of analytical grade.
Dark Agouti rats (male, 7-8 weeks old) were obtained from Harlan Laboratories (Maison-Alfort, France). Rats were kept on a 12 hours light/dark cycle (0700-1900). The temperature was maintained at 22° C., and food and water were provided ad libitum.
One day before the experiment, CII solution (2 mg/mL) was prepared with 0.05 M acetic acid and stored at 4° C. Just before the immunization, equal volumes of adjuvant (IFA) and CII were mixed by a homogenizer in a pre-cooled glass bottle in an ice water bath. Extra adjuvant and prolonged homogenization might be required if an emulsion is not formed. 0.2 mL of the emulsion was injected intradermally at the base of the tail of each rat on day 1, a second booster intradermal injection (CII solution at 2 mg/mL in CFA 0.1 mL saline) was performed on day 9. This immunization method was modified from published methods (Sims N A et al., (2004) Targeting osteoclasts with zoledronic acid prevents bone destruction in collagen-induced arthritis, Arthritis Rheum. 50 2338-2346; Jou et al., 2005).
The therapeutic effects of the test compounds were tested in the rat CIA model. Rats were randomly divided into equal groups and each group contained 10 rats. All rats were immunized on day 1 and boosted on day 9. Therapeutic dosing lasted from day 16 to day 30. The negative control group was treated with vehicle (MC 0.5%) and the positive control group with Enbrel (10 mg/kg, 3× week, s.c.). A compound of interest was typically tested at 3 doses, e.g. 3, 10, 30 mg/kg, p.o.
Arthritis was scored according the method of Khachigian 2006, Lin et al 2007 and Nishida et al. 2004. The swelling of each of the four paws was ranked with the arthritic score as follows: 0-no symptoms; 1-mild, but definite redness and swelling of one type of joint such as the ankle or wrist, or apparent redness and swelling limited to individual digits, regardless of the number of affected digits; 2-moderate redness and swelling of two or more types of joints; 3-severe redness and swelling of the entire paw including digits; 4-maximally inflamed limb with involvement of multiple joints (maximum cumulative clinical arthritis score 16 per animal) (Nishida et al., 2004).
Clinically, body weight loss is associated with arthritis (Shelton et al., 2005; Argiles et al., 1998; Rall, 2004; Walsmith et al., 2004). […] The change in body weight (%) after onset of arthritis was calculated as follows: […]
X-ray photos were taken of the hind paws of each individual animal. A random blind identity number was assigned to each of the photos, and the severity of bone erosion was ranked by two independent scorers with the radiological Larsen's score system as follows: 0-normal with intact bony outlines and normal joint space; 1—slight abnormality with any one or two of the exterior metatarsal bones showing slight bone erosion; 2—definite early abnormality with any three to five of the exterior metatarsal bones showing bone erosion; 3—medium destructive abnormality with all the exterior metatarsal bones as well as any one or two of the interior metatarsal bones showing definite bone erosions; 4—severe destructive abnormality with all the metatarsal bones showing definite bone erosion and at least one of the inner metatarsal joints completely eroded leaving some bony joint outlines partly preserved; 5—mutilating abnormality without bony outlines. This scoring system is a modification from Salvcmini et al., 2001; Bush et al., 2002; Sims et al., 2004; Jou et al., 2005. […]

[2] = Microsomal stability, human liver microsomes; type: in vitro ADME; settings: percentage of compound remaining after 60 minutes, 3 μM compound
Procedure, shortened: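 Percent parent remaining after 60 min was determined by LCMS against a time-zero sample quenched before microsome addition. Incubations ran at 37°C with liver microsomes and a G6PDH-based NADPH-regenerating cofactor mix. Quench was MeOH or ACN (1:1).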

[3] = system: TNF-alpha release; assay: Septic shock model (LPS-induced TNF release); type: in vivo, mouse; settings: 30 mg/kg po, BALB/cJ mice, LPS ip; statistically significant
[4] = molecular target: Recombinant human JAK1 catalytic domain (Homo sapiens (Human), UniProt P23458); assay: JAK1 inhibition assay; type: biochemical
Procedure, shortened: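 IC50 values come from dose-response series, with each point expressed as percent inhibition of cpm. Vehicle sets full activity and 10 μM staurosporine sets background. Incorporated radioactivity counted by scintillation after washing with 75 mM phosphoric acid.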

[5] = system: MMP13 in SW1353 cells; assay: OSM/IL-1β signaling assay (MMP13 levels in SW1353 cells); type: cell-based; settings: Homo sapiens; SW1353 cells, OSM and IL-1β triggered, MMP13 levels 48 hours after triggering; read-out: MMP13 EC50;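 also: secreted MMP13 captured by antibody, activated with APMA and its activity read by fluorescence, inhibition scaled between vehicle-treated triggered wells (0%) and untriggered wells (100%)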

Chain of Recombinant human JAK1 catalytic domain (P23458 850-1154): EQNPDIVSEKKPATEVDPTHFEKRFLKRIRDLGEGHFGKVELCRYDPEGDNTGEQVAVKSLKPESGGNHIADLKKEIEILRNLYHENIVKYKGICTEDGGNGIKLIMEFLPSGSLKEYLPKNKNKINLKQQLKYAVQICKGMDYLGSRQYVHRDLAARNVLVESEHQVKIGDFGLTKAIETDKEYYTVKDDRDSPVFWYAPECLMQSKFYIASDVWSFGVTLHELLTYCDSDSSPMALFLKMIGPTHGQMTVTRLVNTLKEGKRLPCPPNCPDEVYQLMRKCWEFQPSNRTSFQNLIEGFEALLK

| Microsomal Stability Human (%) [2] | EC50 [5] [nM] | IC50 ([4]; semi-quantitative score) [nM] | Compound | efficacy in all readouts of the rat CIA study [1] | reduction in the TNF release [3] [%] | IC50 [4] [nM] |
| --- | --- | --- | --- | --- | --- | --- |
| **** (**** 76-100) | > 1000 |  | O=C(Nc1nc2cccc(-c3ccc(CN4CCOCC4)cc3)n2n1)C1CC1 [Compound 18, N-(5-(4-(morpholinomethyl)phenyl)-[1,2,4]triazolo[1,5-a]pyridin-2-yl)cyclopropanecarboxamide] | efficacious in all readouts | > 50 |  |
| **** (**** 76-100) | 501 to 1000 | < 100 | CC1(C)CN(C(=O)c2ccc(-c3cccc4nc(NC(=O)C5CC5)nn34)cc2)C1 [Compound 330, Cyclopropanecarboxylic acid (5-[4-(3,3-dimethyl-azetidine-1-carbonyl)-phenyl]-[1,2,4]triazolo[1,5-a]pyridin-2-yl}-amide] | efficacious in all readouts |  |  |
| *** (*** 51-75) | > 1000 | < 100 | CC1CCCN(C(=O)c2ccc(-c3cccc4nc(NC(=O)C5CC5)nn34)cc2)C1 (stereo not shown) [Compound 145, N-(5-(4-(3-methylpiperidine-1-carbonyl)phenyl)-[1,2,4]triazolo[1,5-a]pyridin-2-yl)cyclopropanecarboxamide] | efficacious in all readouts |  |  |
| **** (**** 76-100) | > 1000 | < 100 | CC1CN(C(=O)c2ccc(-c3cccc4nc(NC(=O)C5CC5)nn34)cc2)CC(C)O1 (stereo not shown) [Compound 215, Cyclopropanecarboxylic acid {5-[4-(2,6-dimethyl-morpholine-4-carbonyl)-phenyl]-[1,2,4]triazolo[1,5-a]pyridin-2-yl}-amide] | efficacious in all readouts | > 50 |  |

| Compound | Microsomal Stability Human (%) [2] | EC50 [5] [nM] | IC50 ([4]; semi-quantitative score) [nM] | efficacy in all readouts of the rat CIA study [1] | reduction in the TNF release [3] [%] | IC50 [4] [nM] |
| --- | --- | --- | --- | --- | --- | --- |
| N#Cc1ccc(COc2ccc(-c3cccc4nc(NC(=O)C5CC5)nn34)cc2)cn1 [Compound 176, N-(5-(4-((6-cyanopyridin-3-yl)methoxy)phenyl)-[1,2,4]triazolo[1,5-a]pyridin-2-yl)cyclopropanecarboxamide] | **** (**** 76-100) | 1 to 500 |  | efficacious in all readouts | > 50 | < 100 |
